The record followed here is US11628179B2, “Compounds for treating and preventing extracellular histone mediated pathologies” (priority 2017, dated 2023).

Values joined by “and” are separate entries in the source; they are usually repeats but may differ in a detail not shown here. Equal entries are not always repeated. Structures can show the parent of a compound that is named as a salt.

Data set [1] has as its system HMEC-1. In words: Histone-induced calcium flux in endothelial cells. Conditions: mCBS 100 μg ml−1, histones 100 μg ml−1. The class given is cell-based, human. The method, then:
Calcium flux studies in endothelial cells. HMEC-1 (2×10^7 ml^−1) in RPMI-1640 medium were incubated with Indo-1 AM (5 μM)(ThermoFisher) at 37° C. for 60 min. […] The cell suspension was kept on ice and used within 3 h. Intracellular Ca^2+ flux was monitored using flow cytometry. The cells were pre-equilibrated and maintained at 37° C. during analysis using an external sheath connected to a heated water bath. After the exclusion of cellular debris and clumped cells (on the basis of FSC/SSC light scattering) the basal Ca^2+ level was monitored for 2 min before histone addition in the presence/absence of novel compounds. Ca^2+ levels were measured at 1, 4 and 10 min post-histone addition with a constant flow rate (˜300 events/sec). Ca^2+ flux was determined as an increase in the ratio of geometric mean fluorescence intensity (GMFI) of Ca^2+-bound over Ca^2+-unbound Indo-1.
Background: Calcium assays in cells follow changes in intracellular calcium, usually with a dye or a luminescent sensor.

The nature of data set [2]: Pharmacokinetics, intravenous bolus 100 mg/kg (plasma and urine). It is filed as in vivo, rat. Here is the method:
A total of nine blood samples were collected from each rat at time points ranging from pre-dose to 192 hours post-dose. Urine samples were also collected over the first 48 hours. The resulting blood samples were processed to plasma. The urine and plasma samples were subsequently analysed for the concentration of mCBS (free-base) using LC-MS/MS based methods.

The test system of data set [3] is mice. In words: In-vivo histone toxicity assay, circulating blood cells at 10 min. More on the design: species or system mouse. Conditions: 100 mg/kg i.p. 10 min prior to histones 50 mg/kg i.v.; bled 10 min later. Here is the method: In-vivo histone toxicity assays. BALB/c female mice (5˜6 weeks of age), that are more prone to histone-induced anemia and easier to inject i.v. at this young age than C57BL/6 mice, were injected i.p. with test compounds at concentrations indicated 10 min prior to i.v. injection of histones (50 mg kg^−1) in phosphate buffered saline. Retro-orbital bleeds were performed at 10 min after histone injection and collected blood added to acid citrate dextrose (ACD), the 10 min blood sample being subjected to hematologic analyses for platelet and erythrocyte content using an ADVIA 2120i Hematology Analyzer. Spleens were also harvested at 10 min post-histone injection and splenic hemoglobin content quantified using a hemoglobin assay kit (Sigma-Aldrich). In the case of 4 h blood samples, male C57/BL/6 mice (6-8 weeks of age) were injected with test compounds and histones as above and plasma isolated and stored frozen for subsequent biochemical testing, with markers for liver (alanine aminotransferase, ALT), kidney (Creatinine, Crea) and general tissue (lactate dehydrogenase, LDH) damage being determined by the Department of Pathology, The Canberra Hospital.
Accordingly, the inventors in this example investigated the protective effect of mCBS on cells within the blood stream following intravenous injection of histones. […]

The subject of data set [4] is Human platelets in whole blood. Description: Histone-induced platelet degranulation (ATP release). The class given is cell-based. Conditions: compounds added prior to histones 400 μg/mL.
The subject of data set [5] is Sprague Dawley rats. Here is the method: This study examined toxicity from repeat IV administration of mCBS in rats over 7 days with doses up to 1000 mg/kg.
The acute tolerability and toxicity of β-O-methyl cellobioside sulfate was assessed in Sprague Dawley rats following daily intravenous dose administration for a period of seven days. A total of four groups of n=3 adult female rats were treated with 0, 100, 300 and 1000 mg/kg doses of mCBS in the form of the sodium salt (mCBS.Na) in this repeated dose study. […] The rats were then observed for 7 days prior to termination with gross necropsy and terminal haematology and biochemistry analyses. An additional group of n=3 male rats were also treated at the highest dose of 1000 mg/kg according to the same study design.

Data set [6] has as its system Beagle dogs. In words: Phase 2, continuous intravenous infusion at the MTD for 6 additional days. The class given is in vivo, dog. Here is the method: Following confirmation of the MTD (2788 mg/kg/day), the dogs were then transferred to Phase 2 of the study, and the dosing administration was resumed at the MTD for 6 additional days of continuous infusion as indicated in Table 16 below.
Following completion of the additional 6 days of continuous infusion and collection of the last toxicokinetic blood samples, all animals were euthanized and subjected to a necropsy examination on Day 8. Histological examination was performed on the liver and kidneys of all animals.

The test system of data set [7] is whole blood coagulation.
For data set [8], the system named is Wistar rats. Description: Rat ischemia reperfusion tissue flap model. The class given is in vivo. Conditions: 50 mg/kg i.p., 72 h. The source says:
Rat ischemia reperfusion tissue flap model. The procedure employed is largely based on a previously described method (Askar, I., Oktay, M. F., Gurlek, A. & Bac, B. Protective effects of some antineoplastic agents on ischemia-reperfusion injury in epigastric island skin flaps. Microsurgery 26, 193-199, doi:10.1002/micr.20193 (2006)). Briefly, male Wistar rats were anaesthetised, locally depilated and a 3 cm by 6 cm fasciocutaneous flap was excised leaving the vascular pedicle intact. […] The clamp was removed […] post-application permitting returned blood flow to the flap. Test compounds (50 mg kg^−1) or saline were administered i.p. 5 min prior to clamp application and 5 min following its removal. The rats were monitored for a total experimental period of 72 h during which rats received additional compound or saline i.p. at 24 and 48 h post-op. The ‘Control No Clamp’ rats had the tissue flap excised and rubber placed underneath prior to re-suturing, however, the vessel was not clamped and they received saline at the same time points as the other rats. At the end of the experimental period the viability of the flaps was determined by the percentage of black necrotic or reddened areas vs pink viable areas. […]

Where [9] appears, read: IV bolus 100 mg/kg as sodium salt.

With `CO[C@@H]1O[C@H](COS(=O)(=O)O)[C@@H](O[C@@H]2O[C@H](COS(=O)(=O)O)[C@@H](OS(=O)(=O)O)[C@H](OS(=O)(=O)O)[C@H]2OS(=O)(=O)O)[C@H](OS(=O)(=O)O)[C@H]1OS(=O)(=O)O` [mCBS, β-O-methyl cellobioside sulfate], the “histone-induced Ca2+ flux” value in data set [1] was “substantially inhibited the response”. For the same compound, the “percent of total dose excreted in urine, mean (±SEM)” value (from here on “percent … (±SEM)”) in data set [2] (0-4 h post-dosing) is listed as 52.0 (±5.0) %. Also, the “percent … (±SEM)” value in data set [2] (0-24 h post-dosing) is listed as 65.0 (±7.0) %. Moreover, the “percent … (±SEM)” value in data set [2] (0-48 h post-dosing) is 69.2 (±10.8) %. Besides, in data set [2] (setting [9]), the AUCinf is recorded as 135,000 ng·h/mL, the AUClast was 135,000 ng·h/mL, the distribution half-life was 39 min and the “mean residence time (MRT)” value turned out to be 1.43 h. Also, in data set [2] (setting [9]), the “terminal total body clearance (Cl)” value stood at 0.605 L/h/kg and the “volume of distribution (Vz)” value is given as 49.0 L/kg. Further, the “concentration at time zero (C0)” value in data set [2] (IV bolus 100 mg/kg as sodium salt (81.5 mg/kg free base), pooled mean plasma data, 6 rats) is 308,000 ng/mL. Further, the “apparent terminal elimination half-life (T½)” value in data set [2] (IV bolus 100 mg/kg as sodium salt, 100 mg/kg) is 56.1 h and ~56 h. The “histone-mediated reductions in circulating leukocytes, platelets, erythrocytes and haemoglobin” value in data set [3] is recorded as “significantly inhibited if not completely abolished”. Further, in data set [4], the “histone-induced platelet degranulation (ATP release)” value is on record as “significantly reduced”. The tolerability entry in data set [5] (daily IV bolus 100, 300 and 1000 mg/kg for 7 days) is listed as “well tolerated at all dose levels”. Besides, in data set [5] (daily IV bolus for 7 days, corrected for purity and sodium content), the “MTD, as free base” value was 815 mg/kg. The MTD in data set [5] (daily IV bolus for 7 days, dose as sodium salt form) was 1000 mg/kg. In addition, in data set [5] (daily IV bolus up to 1000 mg/kg for 7 days), the “Hematology and biochemistry parameters” value is reported as “unremarkable”. In addition, the tolerability result in data set [6] (2788 mg/kg/day continuous IV infusion) was “well tolerated”. In data set [6] (2788 mg/kg/day, both animals), the “t1/2 after end of infusion” value was “approximately 1 hour”. Besides, in data set [7], the “concentration that doubled the control clotting time” value was 100 µg/mL and the “reduction in anticoagulant activity compared to LMWH, Enoxaparin” value is recorded as 110 fold. In addition, in data set [8], the “viable area of the skin flap” value is “consistently and significantly increased the viable area of the skin flap”.
